# In patent US5529983A, “Use of small peptides in the treatment of psoriasis” (The United States of America as represented by the …, priority 1995, dated 1996):
# Tests used:
# [1] = Six-week intravenous toxicity study in hamsters; format: in vivo
# Description: [D-ala^1 ]peptide-T-amide was given twice daily intravenously to hamsters for six weeks. […] Liver enzymes and kidney enzymes were normal after injection.
# [2] = Toxicity of peptide treatment in human patients; format: in vivo
# Description: Toxicity. As to toxicity, the complete schedule of peptide therapeutic agents above gave negative evidence of toxicity.
# [3] = after injection twice daily intravenously for six weeks
smiles,measurement,setting,value
C[C@@H](N)C(=O)N[C@@H](CO)C(=O)N[C@H](C(=O)N[C@H](C(=O)N[C@H](C(=O)N[C@@H](CC(N)=O)C(=O)N[C@@H](Cc1ccc(O)cc1)C(=O)N[C@H](C(N)=O)[C@@H](C)O)[C@@H](C)O)[C@@H](C)O)[C@@H](C)O [[D-ala^1]peptide-T-amide],Liver enzymes,[1]; [3],normal
same,kidney enzymes,[1]; [3],normal
same,histologic studies on all organs,[1]; twice daily intravenously for six weeks,no significant difference
C[C@H](N)C(=O)N[C@@H](CO)C(=O)N[C@H](C(=O)N[C@H](C(=O)N[C@H](C(=O)N[C@@H](CC(N)=O)C(=O)N[C@@H](Cc1ccc(O)cc1)C(=O)N[C@H](C(=O)O)[C@@H](C)O)[C@@H](C)O)[C@@H](C)O)[C@@H](C)O [Peptide T],toxicity in the liver or kidney,[2]; In humans,no toxicity apparent
same,toxicity,"[2]; preliminary findings, blood pressure fell when the infusion rate was increased",non-toxic with the exception of lowering the blood pressure on one occasion
